In general, IC50 refers to the concentration that gives 50% inhibition.

The first assay relates to C3H10T1/2 cells. The assay can be described thus: C3H assay: differentiation of C3H10T1/2 cells by mSHH, measurement of alkaline phosphatase. The class given is cell-based, mouse. Conditions: Mus musculus, C3H 10T1/2, 72 h, read-out: IC50 Ranges.
`O=C(OCCC1CCOCC1)N1CC(S(=O)(=O)N2CCC(c3c[nH]c4ncccc34)CC2)C1` [Compound 60, 2-Tetrahydropyran-4-ylethyl 3-[[4-(1H-pyrrolo[2,3-b]pyridin-3-yl)-1-piperidyl]sulfonyl]azetidine-1-carboxylate]: the IC50 was 10 to 100 nM.

The same assay, now with this note: Mus musculus, C3H 10T1/2; C3H10T1/2 cells stimulated with mSHH for 72 hours; alkaline phosphatase activity; read-out: IC50 Ranges.
For the compound `COc1ccccc1OC(=O)N1CC(S(=O)(=O)N2CCC(c3ccncc3)CC2)C1` [Compound 27, (2-methoxyphenyl) 3-(4-pyridin-4-ylpiperidin-1-yl)sulfonylaze-tidine-1-carboxylate], the IC50 lay in the range of 10 to 100 nM.

Take `COC1CCC(OC(=O)N2CC(S(=O)(=O)N3CCC(c4ccncc4)CC3)C2)CC1` (stereo not drawn) [Compound 28, (4-methoxycyclo-hexyl) 3-(4-pyridin-4-9-ylpiperidin-1-yl)sulfonylaze-tidine-1-carboxylate]: the IC50 was 100 to 1000 nM.

Turning to `O=C(OC1CCOCC1)N1CC(S(=O)(=O)N2CCC(c3ccncc3)CC2)C1` [Compound 29, oxan-4-yl 3-(4-pyridin-4-ylpiperidin-1-yl)sulfonylaze-tidine-1-carboxylate], the IC50 lay in the range of 1000 to 10000 nM.

For `O=C(OCC1CCCO1)N1CC(S(=O)(=O)N2CCC(c3ccncc3)CC2)C1` (stereo not drawn) [Compound 30, (oxolan-2-yl)methyl 3-(4-pyridin-4-ylpiperidin-1-yl)sulfonylaze-tidine-1-carboxylate], the IC50 was in the range of 1000 to 10000 nM.

As for `CN(C(=O)N1CC(S(=O)(=O)N2CCC(c3ccncc3)CC2)C1)C(C)(C)C` [Compound 31, N-tert-butyl-N-methyl-3-(4-pyridin-4-ylpiperidin-1-yl)sulfonylaze-tidine-1-carboxamide], the IC50 is 100 to 1000 nM.

With `CC1(C)COCC(C)(C)N1C(=O)N1CC(S(=O)(=O)N2CCC(c3ccncc3)CC2)C1` [Compound 32, [3-(4-pyridin-4-ylpiperidin-1-yl)sulfonylaze-tidin-1-yl]-(3,3,5,5-tetramethylmor-pholin-4-yl)methanone], the IC50 is 100 to 1000 nM.

Turning to `CC(C)(C)CC(C)(C)NC(=O)N1CC(S(=O)(=O)N2CCC(c3ccncc3)CC2)C1` [Compound 33, 3-(4-pyridin-4-ylpiperidin-1-yl)sulfonyl-N-(2,4,4-trimethylpentan-2-yl)azetidine-1-carboxamide], the IC50 fell in the range of 10 to 100 nM.

Consider `C[C@@H]1CN(C(=O)N2CC(S(=O)(=O)N3CCC(c4cnc5occc5c4)CC3)C2)C[C@H](C)O1` [Compound 35, [(2R,6S)-2,6-dimethylmorpholin-4-yl]-[3-(4-furo[2,3-b]pyridin-5-ylpiperidin-1-yl)sulfonylaze-tidin-1-yl]methanone], for which the IC50 fell in the range of 100 to 1000 nM.

On to `Cc1noc(C)c1NC(=O)N1CC(S(=O)(=O)N2CCC(c3cnc4c(c3)CCO4)CC2)C1` [Compound 36, 3-[4-(2,3-dihydrofuro[2,3-b]pyridin-5-yl)piperidin-1-yl]sulfonyl-N-(3,5-dimethyl-1,2-oxazol-4-yl)azetidine-1-carboxamide], for which the IC50 was in the range of 1000 to 10000 nM.

As to `Cc1noc(C)c1NC(=O)N1CC(S(=O)(=O)N2CCC(c3cnc4occc4c3)CC2)C1` [Compound 37, N-(3,5-dimethyl-1,2-oxazol-4-yl)-3-(4-furo[2,3-b]pyridin-5-ylpiperidin-1-yl)sulfonylaze-tidine-1-carboxamide], the IC50 is 1000 to 10000 nM.

For `O=C(OC1CCCCC1)N1CC(S(=O)(=O)N2CCC(c3cnc4occc4c3)CC2)C1` [Compound 38, cyclohexyl 3-(4-furo[2,3-b]pyridin-5-ylpiperidin-1-yl)sulfonylaze-tidine-1-carboxylate], the IC50 lay within 100 to 1000 nM.

As for `Cc1noc(C)c1NC(=O)N1CC(S(=O)(=O)N2CCC(c3c[nH]c4cccnc34)CC2)C1` [Compound 39, N-(3,5-dimethyl-1,2-oxazol-4-yl)-3-[4-(1H-pyrrolo[3,2-b]pyridin-3-yl)piperidin-1-yl]sulfonylaze-tidine-1-carboxamide], the IC50 was in the range of 10 to 100 nM.

For `O=C(OC1CCCCC1)N1CC(S(=O)(=O)N2CCC(c3cn(C(=O)OC4CCCCC4)c4cccnc34)CC2)C1` [Compound 40, cyclohexyl 3-[1-(1-cyclohexyloxycarbonylazetidin-3-yl)sulfonylpiper-idin-4-yl]pyrrolo [3,2-b]pyridine-1-carboxylate], the IC50 fell in the range of 1000 to 10000 nM.

Regarding `O=C(OC1CCCCC1)N1CC(S(=O)(=O)N2CCC(c3c[nH]c4cccnc34)CC2)C1` [Compound 41, cyclohexyl 3-[4-(1H-pyrrolo[3,2-b]pyridin-3-yl)piperidin-1-yl]sulfonylaze-tidine-1-carboxylate], the IC50 fell in the range of 10 to 100 nM.

Turning to `Cc1noc(C)c1NC(=O)N1CC(S(=O)(=O)N2CCC(c3cn(C)c4nccnc34)CC2)C1` [Compound 42, N-(3,5-dimethyl-1,2-oxazol-4-yl)-3-[4-(5-methylpyrrolo [2,3-b]pyrazin-7-yl)piperidin-1-yl]sulfonylaze-tidine-1-carboxamide], the IC50 was in the range of 1000 to 10000 nM.

`Cc1noc(C)c1NC(=O)N1CC(S(=O)(=O)N2CCC(c3c[nH]c4nccnc34)CC2)C1` [Compound 43, N-(3,5-dimethyl-1,2-oxazol-4-yl)-3-[4-(5H-pyrrolo [2,3-b]pyrazin-7-yl)piperidin-1-yl]sulfonylaze-tidine-1-carboxamide]: the IC50 lay in the range of 10 to 100 nM.

On to `O=C(OC1CCCCC1)N1CC(S(=O)(=O)N2CCC(c3c[nH]c4nccnc34)CC2)C1` [Compound 44, cyclohexyl 3-[4-(5H-pyrrolo[2,3-b]pyrazin-7-yl)piperidin-1-yl]sulfonylaze-tidine-1-carboxylate], for which the IC50 fell in the range of 10 to 100 nM.

`CC1CC(c2c[nH]c3ncccc23)CCN1S(=O)(=O)C1CN(C(=O)OC(C)(C)C)C1` (stereo not drawn) [Compound 46, tert-butyl 3-[2-methyl-4-(1H-pyrrolo [2,3-b]pyridin-3-yl)piperidin-1-yl]sulfonylaze-tidine-1-carboxylate]: the IC50 fell in the range of 1000 to 10000 nM.

For `COc1ccc(C2CCN(S(=O)(=O)C3CN(C(=O)OC(C)(C)C)C3)CC2)nc1` [Compound 47, tert-butyl 3-[4-(5-methoxypyridin-2-yl)piperidin-1-yl]sulfonylaze-tidine-1-carboxylate], the IC50 fell in the range of 1000 to 10000 nM.

Turning to `COc1ccc(C2CCN(S(=O)(=O)C3CN(C(=O)OC(C)(C)C)C3)CC2)cn1` [Compound 48, tert-butyl 3-[4-(6-methoxypyridin-3-yl)piperidin-1-yl]sulfonylaze-tidine-1-carboxylate], the IC50 is 100 to 1000 nM.

As for `CC(C)(C)OC(=O)N1CC(S(=O)(=O)N2CCC(c3c[nH]c4cccnc34)CC2)C1` [Compound 49, tert-butyl 3-[4-(1H-pyrrolo[3,2-b]pyridin-3-yl)piperidin-1-yl]sulfonylaze-tidine-1-carboxylate], the IC50 lay within 10 to 100 nM.

For `CN(C)CC(C)(C)OC(=O)N1CC(S(=O)(=O)N2CCC(c3c[nH]c4ncccc34)CC2)C1` [Compound 50, [1-(dimethylamino)-2-methylpropan-2-yl] 3-[4-(1H-pyrrolo[2,3-b]pyridin-3-yl)piperidin-1-yl]sulfonylaze-tidine-1-carboxylate], the IC50 was 10 to 100 nM.

Turning to `CN1CCC(COC(=O)N2CC(S(=O)(=O)N3CCC(c4c[nH]c5ncccc45)CC3)C2)CC1` [Compound 51, (1-methylpiperidin-4-yl)methyl 3-[4-(1H-pyrrolo [2,3-b]pyridin-3-yl)piperidin-1-yl]sulfonylaze-tidine-1-carboxylate], the 50% inhibitory concentration (IC50) was 100 to 1000 nM.

Consider `CCN(CC)CCOC(=O)N1CC(S(=O)(=O)N2CCC(c3c[nH]c4ncccc34)CC2)C1` [Compound 52, 2-(diethylamino) ethyl 3-[4-(1H-pyrrolo [2,3-b]pyridin-3-yl)piperidin-1-yl]sulfonylaze-tidine-1-carboxylate], for which the IC50 is 100 to 1000 nM.

Take `CN1CCN(CCCOC(=O)N2CC(S(=O)(=O)N3CCC(c4c[nH]c5ncccc45)CC3)C2)CC1` [Compound 53, 3-(4-methylpiperazin-1-yl)propyl 3-[4-(1H-pyrrolo [2,3-b]pyridin-3-yl)piperidin-1-yl]sulfonylaze-tidine-1-carboxylate]: the IC50 is 1000 to 10000 nM.

For the compound `O=C(OCCN1CCOCC1)N1CC(S(=O)(=O)N2CCC(c3c[nH]c4ncccc34)CC2)C1` [Compound 54, 2-morpholin-4-ylethyl 3-[4-(1H-pyrrolo [2,3-b]pyridin-3-yl)piperidin-1-yl]sulfonylaze-tidine-1-carboxylate], the IC50 lay in the range of 10 to 100 nM.

For `Cc1noc(C)c1CNC(=O)N1CC(S(=O)(=O)N2CCC(c3c[nH]c4ncccc34)CC2)C1` [Compound 55, N-[(3,5-dimethyl-1,2-oxazol-4-yl)methyl]-3-[4-(1H-pyrrolo[2,3-b]pyridin-3-yl)piperidin-1-yl]sulfonylaze-tidine-1-carboxamide], the IC50 is 10 to 100 nM.

For the compound `Cc1noc(C)c1CCN1CC(S(=O)(=O)N2CCC(c3c[nH]c4ncccc34)CC2)C1` [Compound 56, 3,5-Dimethyl-4-[2-[3-[[4-(1H-pyrrolo[2,3-b]pyridin-3-yl)-1-piperidyl]sulfonyl]azetidin-1-yl]ethyl]isoxazole], the IC50 fell in the range of 10 to 100 nM.

`O=C(NC1(C(F)(F)F)CC1)N1CC(S(=O)(=O)N2CCC(c3c[nH]c4ncccc34)CC2)C1` [Compound 57, 3-[[4-(1H-Pyrrolo[2,3-b]pyridin-3-yl)-1-piperidyl]sulfonyl]-N-[1-(trifluoromethyl)cyclopropyl]azetidine-1-carboxamide]: the IC50 is less than 10 nM.

In the case of `O=C(OCCCN1CCCCC1)N1CC(S(=O)(=O)N2CCC(c3c[nH]c4ncccc34)CC2)C1` [Compound 58, 3-piperidin-1-ylpropyl 3-[4-(1H-pyrrolo[2,3-b]pyridin-3-yl)piperidin-1-yl]sulfonylaze-tidine-1-carboxylate], the IC50 lay within 100 to 1000 nM.

In the case of `O=C(OCCN1CCCCC1)N1CC(S(=O)(=O)N2CCC(c3c[nH]c4ncccc34)CC2)C1` [Compound 59, 2-piperidin-1-ylethyl 3-[4-(1H-pyrrolo [2,3-b]pyridin-3-yl)piperidin-1-yl]sulfonylaze-tidine-1-carboxylate], the concentration for half-maximal inhibition (IC50) is 10 to 100 nM.

On to `Cc1noc(C)c1CN1CC(S(=O)(=O)N2CCC(c3c[nH]c4ncccc34)CC2)C1` [Compound 61, 3,5-dimethyl-4-[[3-[4-(1H-pyrrolo [2,3-b]pyridin-3-yl)piperidin-1-yl]sulfonylaze-tidin-1-yl]methyl]-1,2-oxazole], for which the IC50 lay in the range of 1000 to 10000 nM.
